Counter-ions that a name gives are not always drawn. Like-named read-outs stand apart in the source and are kept apart here.
Columns and labels:
myopia development [1] = conditions: chickens and guinea pigs; cited from earlier work
myopia [2] = conditions: monkeys; effect strongly depended on the genetic background; cited from earlier work
induced myopia = conditions: 30 mg/kg dose, rabbits; cited from earlier work
sclera = conditions: rabbit, in vivo; cited from earlier work
[3] = tested on: progression of myopia in children; conditions: daily oral 400 mg (∼15 mg/kg), cited from earlier work
myopia [4] = conditions: 300 mg/kg dose, guinea pigs; cited from earlier work
[5] = tested on: mice with experimentally induced myopia; test: Lens-induced myopia (-25 D lens over right eye, 3 weeks), drug in diet; type: in vivo, C57BL/6J (B6) mice; conditions: for interocular difference in refractive error between lens-treated eyes and control eyes: after 3 weeks of lens treatment, control group -10.47 ± 3.02 D; for inhibition (suppression) of myopia: systemic oral administration, 3 weeks, -25 D lens, B6 mice
Text: Myopia was induced in 24-days old C57BL/6J (B6) mice by attaching -25 diopter (D) lens placed in a plastic 3D-printed frame over right eye. The contralateral eye served as control. Mice were raised with lenses for 3 weeks (FIG. 1A). After 3 weeks, the lenses were removed and refractive errors in the lens-treated eyes and contralateral control eyes were compared. Lens-treatment produced myopia in the lens-treated eyes (average refractive error = -14.6 ± 0.3 D) relative to the control eyes (average refractive error = +0.6 ± 0.6 D) (FIG. 1B); the interocular difference in refractive error (-15.2 ± 0.7 D) was highly significant (P < 0.0001). […] The diameter of lens-treated eyes was on average 65 ± 8 µm larger (P < 0.0001; FIG. 1C), and the vitreous chamber depth in the lens-treated eyes was 61 ± 4 µm longer (P < 0.0001; FIG. 1C), than that of the control fellow eyes.
The experimental group of B6 mice was raised with -25 D lenses over right eye (as described in Example 1) on a diet supplemented with 5 mg/kg of levocabastine hydrochloride for 3 weeks, while the control group of B6 mice with -25 D lenses over right eye was raised on a regular non-medicated diet. The interocular difference in refractive error between lens-treated eyes and control eyes in the levocabastine-treated animals after 3 weeks of lens treatment was +0.55 ± 2.32 D versus -10.47 ± 3.02 D in the control group, P-value = 2.83 × 10^-10.
(§1) The experimental group of B6 mice was raised with -25 D lenses over right eye on a diet supplemented with 1 mg/kg of fenoterol hydrobromide for 3 weeks, while the control group of B6 mice with -25 D lenses over right eye was raised on a regular non-medicated diet. The interocular difference in refractive error between lens-treated eyes and control eyes in the fenoterol-treated animals after 3 weeks of lens treatment was -0.8 ± 1.80 D versus -10.47 ± 3.02 D in the control group, P = 2.47 × 10^-08.
as §1, with “trichostatin A” for “fenoterol hydrobromide”, “trichostatin-A-treated” for “fenoterol-treated”, “0.48” for “-0.8”, “1.46” for “1.80”, “4.43” for “2.47”, “10^-10.” for “10^-08.”
(§2) The experimental group of B6 mice was raised with -25 D lenses over right eye on a diet supplemented with 0.3 mg/kg of fingolimod phosphate for 3 weeks, while the control group of B6 mice with -25 D lenses over right eye was raised on a regular non-medicated diet. The interocular difference in refractive error between lens-treated eyes and control eyes in the fingolimod-treated animals after 3 weeks of lens treatment was -0.02 ± 1.58 D versus -10.47 ± 3.02 D in the control group, P = 4.63 × 10^-9.
The experimental group of B6 mice was raised with -25 D lenses over right eye on a diet supplemented with 20 mg/kg of berberine chloride for 3 weeks, while the control group of B6 mice with -25 D lenses over right eye was raised on a regular non-medicated diet. The interocular difference in refractive error between lens-treated eyes and control eyes in the berberine-treated animals after 3 weeks of lens treatment was -5.15 ± 1.22 D versus -10.47 ± 3.02 D in the control group, P = 1.31 × 10^-4.
as §2, with “10” for “0.3”, “S-methyl-L-thiocitrulline hydrochloride” for “fingolimod phosphate”, “S-methyl-L-thiocitrulline-treated” for “fingolimod-treated”, “-0.28” for “-0.02”, “2.17” for “1.58”, “6.73” for “4.63”

myopia development [6] = conditions: chicken, mouse and non-human primates; cited from earlier work
progression of myopia [7] = conditions: 1-year period, cited from earlier work
[8] = tested on: development of ocular components and emmetropization; conditions: juvenile primates; cited from earlier work
[9] = tested on: progression of myopia in children; conditions: cited from earlier work
progression of myopia [10] = conditions: cited from earlier work
myopia [11] = conditions: guinea pigs; cited from earlier work
[12] = tested on: experimentally induced myopia; conditions: chickens; cited from earlier work
mouse model of myopia = conditions: cited from earlier work
experimental myopia = conditions: tree shrews, rhesus monkeys, and chickens; cited from earlier work
progression of myopia [13] = conditions: guinea pigs; cited from earlier work
[14] = tested on: progression of myopia in children; conditions: cited from earlier work; remark: listed apart in the source

CCCCP(=O)(O)C1CCC(N)C1 (stereo not shown) [3-ACPBPA, (3-aminocyclopentanyl) butylphosphinic acid]
suppression of myopia development (myopia development [1]): suppress myopia development

Cn1cnc2[nH]c(=O)[nH]c(=O)c21 [7-MX, 7-methylxanthine]
suppression of myopia (myopia [2]): can suppress myopia in primates | reduction of the extent of induced myopia (induced myopia): approximately 67% | changes in the sclera (sclera): thickening of the sclera and an increase in the diameter of the scleral collagen fibrils | effect on myopia progression ([3]; subjects with high rates of progression): no effect | suppression of myopia ([3]; subjects with slow progressing myopia): approximately 22% | suppression of myopia (myopia [4]): 49%

NCCCP(=O)(O)CC1CCCCC1 [CGP46381]
suppression of myopia development (myopia development [1]): suppress myopia development

[H]/N=C(\NCCC[C@H](N)C(=O)O)SC [S-methyl-L-thiocitrulline hydrochloride]
interocular difference in refractive error between lens-treated eyes and control eyes ([5]; diet supplemented with 10 mg/kg): -0.28 ± 2.17 D | inhibition (suppression) of myopia ([5]; 10 mg/kg in diet): approximately 97%

CP(=O)(O)C1=CCNCC1 [TPMPA, (1,2,5,6-tetrahydropyridin-4yl) methylphosphinic acid]
suppression of myopia development (myopia development [1]): suppress myopia development

CN1CCc2cccc3c2[C@H]1Cc1ccc(O)c(O)c1-3 [apomorphine]
inhibition of myopia development (myopia development [6]): inhibit myopia development

CN1[C@@H]2CC[C@H]1C[C@@H](OC(=O)C(CO)c1ccccc1)C2 (stereo partly shown) [atropine]
retardation of progression of myopia (progression of myopia [7]; 0.01% atropine): 27% | retardation of progression of myopia (progression of myopia [7]; 0.025% atropine): 43% | retardation of progression of myopia (progression of myopia [7]; 0.05% atropine): 67% | long-term effects on development of ocular components and emmetropization [8]: long-term adverse effects | long-term suppression effect ([9]; 0.01% atropine, 5-year follow up study): approximately 30% | drop of the progression rate after cessation of treatment ([9]; 0.01% atropine, after cessation of treatment): approximately 30% | retardation of the progression of myopia ([9]; 0.01% atropine, children): 59% | retardation of the progression of myopia ([9]; 0.1% atropine, children): 68% | suppression of the progression of myopia ([9]; 0.5% atropine, children): 75% | retardation of the progression of myopia (progression of myopia [10]; 1% atropine eye drops, 2-year treatment period): approximately 76% | side effects (progression of myopia [10]; 1% atropine): photophobia, reduced accommodation amplitude, and blurred vision

COc1ccc2cc3[n+](cc2c1OC)CCc1cc2c(cc1-3)OCO2 [berberine chloride]
interocular difference in refractive error between lens-treated eyes and control eyes ([5]; diet supplemented with 20 mg/kg): -5.15 ± 1.22 D | inhibition (suppression) of myopia ([5]; 20 mg/kg in diet): approximately 50%

Brc1c(NC2=NCCN2)ccc2nccnc12 [brimonidine]
suppression of myopia (myopia [11]): suppressed myopia | inhibition of experimentally induced myopia [12]: suppressed myopia

Clc1cccc(Cl)c1N=C1NCCN1 [clonidine]
inhibition of experimentally induced myopia [12]: inhibit experimentally induced myopia

CC(/C=C/C=C(\C)C(=O)O)=C\C=C\C=C(C)\C=C\C=C(/C)C(=O)O [crocetin]
outcome of drug screen (mouse model of myopia): potential anti-myopia agent

CC(Cc1ccc(O)cc1)NCC(O)c1cc(O)cc(O)c1 (stereo not shown) [fenoterol hydrobromide]
interocular difference in refractive error between lens-treated eyes and control eyes ([5]; diet supplemented with 1 mg/kg): -0.8 ± 1.80 D

CCCCCCCCc1ccc(CCC(N)(CO)COP(=O)(O)O)cc1 (stereo not shown) [fingolimod phosphate, fingolimod (FTY720) phosphate]
interocular difference in refractive error between lens-treated eyes and control eyes ([5]; diet supplemented with 0.3 mg/kg): -0.02 ± 1.58 D

N=C(N)NC(=O)Cc1c(Cl)cccc1Cl [guanfacine]
inhibition of experimentally induced myopia [12]: inhibit experimentally induced myopia

C[C@@H]1OC(=O)[C@H]2C[C@H]3CCCC[C@@H]3[C@@H](/C=C/[C@H]3CCC[C@H](C)N3C)[C@@H]12 [himbacine]
inhibition of the development of experimental myopia (experimental myopia): inhibit the development of experimental myopia

CC(C)OC(=O)CCC/C=C\C[C@@H]1[C@@H](CC[C@@H](O)CCc2ccccc2)[C@H](O)C[C@@H]1O [latanoprost]
reduction of progression of myopia (progression of myopia [13]): reduce progression of myopia

C[C@@H]1CN([C@H]2CC[C@](C#N)(c3ccc(F)cc3)CC2)CC[C@]1(C(=O)O)c1ccccc1 [levocabastine hydrochloride]
interocular difference in refractive error between lens-treated eyes and control eyes ([5]; diet supplemented with 5 mg/kg): +0.55 ± 2.32 D

CN1CCN(CC(=O)N2c3ccccc3C(=O)Nc3cccnc32)CC1 [pirenzepine]
inhibition of the development of experimental myopia (experimental myopia): inhibit the development of experimental myopia | suppression of the progression of myopia ([14]; children): 40% | side effects ([14]; clinical trials eventually discontinued): serious side effects

CC(=C\[C@@H](C)C(=O)c1ccc(N(C)C)cc1)/C=C(\C)C(=O)NO [trichostatin A]
interocular difference in refractive error between lens-treated eyes and control eyes ([5]; diet supplemented with 1 mg/kg): 0.48 ± 1.46 D | inhibition (suppression) of myopia ([5]; 1 mg/kg in diet): more than 100%

— patent US20230138414A1, “METHODS AND COMPOSITIONS FOR PREVENTING AND TREATING MYOPIA” (The Trustees of Columbia University in the City of New York, priority 2020, published 2023)
